Test results published in patent US5843755A, “Group of antitumor compounds and method for producing the same” (Ajinomoto Co., Inc., priority 1996, dated 1998).
≈ marks a conversion by molar mass, not a printed value.

Columns and labels:
K562T = assay: Growth-inhibiting action on various cells (MTT), K562T; type: cell-based; conditions: 72 h, human leukemia, 4 × 10^4 cells/ml, 3 days, read-out: IC50 (concentration at which cell proliferation is inhibited by 50%)
Protocol: (§1) The proliferation-inhibiting action of FE399 compounds obtained by purification, on various cells was measured under a condition shown below.
(§2) After that, FE399-P1 or FE399-P2 was added thereto at an appropriate concentration, followed by further cultivation for 3 days. However, as for P388 and K562, the FE399 compound group was added immediately after preparation of cell culture liquids. Each of the cultures was added with 10 μl of a solution of MTT (3-(4,5-dimethyl-2-thiazolyl)-2,5-diphenyl-2H-tetrazolium.Br, 5 mg/ml Dulbecco PBS(-)), followed by cultivation at 37° C. for 4 hours in the carbon dioxide gas incubator. After that, each of the cultures was added with 50 μl of 0.01N hydrochloric acid/20% SDS, and then the absorbance was measured at 570 nm by using a microplate reader (reference wavelength: 630 nm).

SW948 = assay: Growth-inhibiting action on various cells (MTT), SW948; type: cell-based; conditions: 72 h, SW948, human colon cancer, 5 × 10^4 cells/ml, 3 days, read-out: IC50 (concentration at which cell proliferation is inhibited by 50%)
Protocol: as §1, §2

[1] = Stability of the tautomers; type: physicochemical; conditions: tautomeric equilibrium in organic solvent such as acetonitrile, chloroform, acetic acid
CHO-K1 = assay: Growth-inhibiting action on various cells (MTT), CHO-K1; type: cell-based; conditions: Cricetulus griseus, 72 h, CHO-K1, Chinese hamster ovary fibroblast, 1.5 × 10^4 cells/ml, 3 days, read-out: IC50 (concentration at which cell proliferation is inhibited by 50%)
Protocol: as §1, §2

Colon26 = assay: Growth-inhibiting action on various cells (MTT), Colon26; type: cell-based; conditions: Colon 26, 72 h, Colon26, mouse colon cancer, 5 × 10^4 cells/ml, 3 days, read-out: IC50 (concentration at which cell proliferation is inhibited by 50%)
Protocol: as §1, §2

P388 = assay: Growth-inhibiting action on various cells (MTT), P388; type: cell-based; conditions: 72 h, P388, mouse leukemia, 2 × 10^4 cells/ml, 3 days, read-out: IC50 (concentration at which cell proliferation is inhibited by 50%)
Protocol: as §1, §2

Solubility = type: physicochemical
[2] = test system: Mouse colon cancer cells (colon-26); assay: Anticancer effect on solid cancer, colon-26 transplanted subcutaneously to CDFI mice; type: in vivo; conditions: cisplatin 5 mg/kg on 7th, 11th and 15th day
Protocol: Mouse colon cancer cells (colon-26) subcultured in vivo subcutaneously in a CDFI mouse were excised from the subcutaneous portion of the mouse. The cells were minced and transplanted subcutaneously with a trocar to CDFI mice (female, 4 weeks old) so that the concentration was 10 mg/mouse. The day of the transplantation was designated as 0th day. On 7th day, the tumor size and the body weight were measured, and the mice were classified into groups with n=4. The tumor size was calculated as a tumor weight in accordance with the following arithmetic expression. [formula]
FE399 which was obtained by drying up the acetonitrile solution of FE399-1 isolated by the method described in Example 1 under a reduced precondition was administered to the mice described above in accordance with the following schedule. FE399 was administered intraperitoneally in an administration amount of 0.2 mL/mouse. FE399 was dissolved in dimethyl sulfoxide (DMSO) so that the concentration was 100 mg/ml. The concentration was adjusted with physiological saline containing 5% Tween 80 so that the administration amount was 4 mg/kg or 8 mg/kg. […]
The anticancer effect was evaluated on the basis of the tumor enhancement inhibitory ratio (IR) calculated from the tumor weight. IR was determined in accordance with the following arithmetic expression. […]

| Compound | IC50 (K562T) | IC50 (SW948) | Stability among the group of the compounds [1] | IC50 (CHO-K1) | IC50 (Colon26) | IC50 (P388) | Solubility (Solubility; in dimethyl sulfoxide, chloroform, ethyl acetate, methanol, and acetonitrile) | Solubility (Solubility; in pyridine and acetic acid) | Solubility (Solubility; in water) | IR (tumor enhancement inhibitory ratio) ([2]; 15th day) | IR (tumor enhancement inhibitory ratio) ([2]; 21st day) |
| --- | --- | --- | --- | --- | --- | --- | --- | --- | --- | --- | --- |
| CCCC1CCCCCCCC(=O)NC2CSSCC(NC2=O)C(=O)O1 (centres unmarked) [FE399-P1] | 0.31 µg/mL (≈ 0.77 µM) | 0.15 µg/mL (≈ 0.373 µM) | relatively stable | 0.3 µg/mL (≈ 0.745 µM) | 0.4 µg/mL (≈ 0.994 µM) | 0.36 µg/mL (≈ 0.894 µM) | soluble | readily soluble | scarcely soluble |  |  |
| N.N.[Cl][Pt][Cl] [cisplatin] |  |  |  |  |  |  |  |  |  | 63 | 73 |
